{"source": "patent US11191742B2", "about": "“Methods of treating neurodegenerative disorders in a particular population” (ALZHEON, INC., priority 2015, dated 2021)", "format_in_all_cases": "in vivo, human", "key": {"[1]": {"test_system": "APOE4+ patients with Alzheimer's disease", "experiment": "Phase 3 trials of tramiprosate, CDR-SB score, all APOE4+ patients", "details": "for CDR-SB Score Change over Standard of Care (Δ improvement vs control): All APOE4+ patients ≤85 years", "protocol": "(§1) The delta value in all of these tables is calculated by measuring the increase in score over baseline for each patient in a treatment group and obtaining the mean increase for such group and then subtracting that value from the mean increase in score over baseline for all patients in the placebo group. Thus, a positive delta value in these tables represents an improvement over the placebo group. Phase 3 human clinical trials of tramiprosate to treat Alzheimer's disease at doses of 100 mg BID and 150 mg BID for up to 78 weeks were run in both North America and Europe (1691 total patients enrolled). Placebos in both trials were treatment with donepezil either alone or in combination with memantine. ADAS-Cog scores and CDR-SB scores were obtained every 13 weeks for patients that remained in the trial. The patients were genotyped for APOE4 and the severity of their disease was measured using MMSE prior to the beginning of treatment. The data from both trials were merged for certain statistical analyses. […] We then performed additional subgroup analysis, subgrouping by APOE4 genotype/allele status (APOE4 heterozygous or APOE4 homozygous) and by disease severity (mild vs moderate) to determine if the number of c alleles and/or the severity of disease predicted a better outcome of tramiprosate therapy. […] In Table 2, *control treatment is donepezil either alone or in combination with memantine. Positive delta values quantitate the amount by which average increase in CDR-SB Score points above baseline for the control group exceeded the average increase in CDR-SB Score points above baseline for the treatment group."}, "[2]": {"test_system": "APOE4 heterozygous patients with Alzheimer's disease", "experiment": "Phase 3 trials of tramiprosate, CDR-SB score, heterozygous APOE4+ patients", "details": "Heterozygous APOE4+ patients ≤85 years", "protocol": "as §1, with “4,” for “2,”"}, "[3]": {"test_system": "APOE4/4 homozygous patients with Alzheimer's disease", "experiment": "Phase 3 trials of tramiprosate, ADAS-Cog and CDR-SB by baseline MMSE, APOE4/4 homozygous subjects", "details": "150 mg BID", "protocol": "Analysis of the efficacy or tramiprosate in APOE4/4 homozygous subjects based on baseline MMSE was performed to evaluate for differences in drug response between Mild and Moderate patients. […] analyses were performed on the following baseline MMSE categories: Mild-to-Moderate AD population (baseline MMSE 16-26 inclusive), Mild AD population (baseline MMSE 20-26 inclusive), and the More Mild AD population (baseline MMSE 22-26 inclusive). The data is shown below in FIG. 7, panels A and B."}, "[4]": {"experiment": "Safety in Phase 3 tramiprosate studies", "protocol": "In some embodiments, the subject is determined to have moderate AD when the subject has a baseline MMSE score in the range of 16-19. In some embodiments, the subject is determined to have mild AD when the subject has a baseline MMSE score in the range of 20-26. […] Safety data from Phase 3 tramiprosate studies support bridging to the ALZ-801 safety database, based on bioequivalence. The disclosures in provisional application Ser. No. 62/216,404, filed Sep. 10, 2015, 62/290,287, filed Feb. 2, 2016, and 62/365,809, filed Jul. 22, 2016 are incorporated herein for all purposes and particularly regarding dosages and formulations."}, "[5]": {"details": "Mild (MMSE 20-26), 100 mg BID, 52 weeks"}, "[6]": {"details": "Mild (MMSE 20-26), 100 mg BID, 65 weeks"}, "[7]": {"details": "Mild (MMSE 20-26), 100 mg BID, 78 weeks"}, "[8]": {"details": "Mild (MMSE 20-26), 150 mg BID, 52 weeks"}, "[9]": {"details": "Mild (MMSE 20-26), 150 mg BID, 65 weeks"}, "[10]": {"details": "Mild (MMSE 20-26), 150 mg BID, 78 weeks"}, "[11]": {"details": "Mild-to-Moderate (MMSE 16-26), 100 mg BID, 52 weeks"}, "[12]": {"details": "Mild-to-Moderate (MMSE 16-26), 100 mg BID, 65 weeks"}, "[13]": {"details": "Mild-to-Moderate (MMSE 16-26), 100 mg BID, 78 weeks"}, "[14]": {"details": "Mild-to-Moderate (MMSE 16-26), 150 mg BID, 52 weeks"}, "[15]": {"details": "Mild-to-Moderate (MMSE 16-26), 150 mg BID, 65 weeks"}, "[16]": {"details": "Mild-to-Moderate (MMSE 16-26), 150 mg BID, 78 weeks"}, "[17]": {"details": "Moderate (MMSE 16-19), 100 mg BID, 52 weeks"}, "[18]": {"details": "Moderate (MMSE 16-19), 100 mg BID, 65 weeks"}, "[19]": {"details": "Moderate (MMSE 16-19), 100 mg BID, 78 weeks"}, "[20]": {"details": "Moderate (MMSE 16-19), 150 mg BID, 52 weeks"}, "[21]": {"details": "Moderate (MMSE 16-19), 150 mg BID, 65 weeks"}, "[22]": {"details": "Moderate (MMSE 16-19), 150 mg BID, 78 weeks"}}}
{"smiles": "NCCCS(=O)(=O)O", "note": "[Tramiprosate, 3-amino-1-propanesulfonic acid]", "values": [{"measurement": "Effect on CDR-SB compared with the placebo", "setting": "[1]; APOE4+ subgroup, both 100 mg and 150 mg treatment groups", "value": "statistically significant effect"}, {"measurement": "CDR-SB Score Change over Standard of Care (Δ improvement vs control)", "setting": "[1]; [5]", "value": 0.14, "unit": "points"}, {"measurement": "CDR-SB Score Change over Standard of Care (Δ improvement vs control)", "setting": "[1]; [6]", "value": 0.34, "unit": "points"}, {"measurement": "CDR-SB Score Change over Standard of Care (Δ improvement vs control)", "setting": "[1]; [7]", "value": 0.35, "unit": "points"}, {"measurement": "CDR-SB Score Change over Standard of Care (Δ improvement vs control)", "setting": "[1]; [8]", "value": 0.16, "unit": "points"}, {"measurement": "CDR-SB Score Change over Standard of Care (Δ improvement vs control)", "setting": "[1]; [9]", "value": 0.2, "unit": "points"}, {"measurement": "CDR-SB Score Change over Standard of Care (Δ improvement vs control)", "setting": "[1]; [10]", "value": 0.18, "unit": "points"}, {"measurement": "CDR-SB Score Change over Standard of Care (Δ improvement vs control)", "setting": "[1]; [11]", "value": 0.26, "unit": "points"}, {"measurement": "CDR-SB Score Change over Standard of Care (Δ improvement vs control)", "setting": "[1]; [12]", "value": 0.5, "unit": "points"}, {"measurement": "CDR-SB Score Change over Standard of Care (Δ improvement vs control)", "setting": "[1]; [13]", "value": 0.55, "unit": "points"}, {"measurement": "CDR-SB Score Change over Standard of Care (Δ improvement vs control)", "setting": "[1]; [14]", "value": 0.44, "unit": "points"}, {"measurement": "CDR-SB Score Change over Standard of Care (Δ improvement vs control)", "setting": "[1]; [15]", "value": 0.5, "unit": "points"}, {"measurement": "CDR-SB Score Change over Standard of Care (Δ improvement vs control)", "setting": "[1]; [16]", "value": 0.6, "unit": "points"}, {"measurement": "CDR-SB Score Change over Standard of Care (Δ improvement vs control)", "setting": "[1]; [17]", "value": 0.56, "unit": "points"}, {"measurement": "CDR-SB Score Change over Standard of Care (Δ improvement vs control)", "setting": "[1]; [18]", "value": 0.83, "unit": "points"}, {"measurement": "CDR-SB Score Change over Standard of Care (Δ improvement vs control)", "setting": "[1]; [19]", "value": 0.98, "unit": "points"}, {"measurement": "CDR-SB Score Change over Standard of Care (Δ improvement vs control)", "setting": "[1]; [20]", "value": 1.00, "unit": "points"}, {"measurement": "CDR-SB Score Change over Standard of Care (Δ improvement vs control)", "setting": "[1]; [21]", "value": 1.12, "unit": "points"}, {"measurement": "CDR-SB Score Change over Standard of Care (Δ improvement vs control)", "setting": "[1]; [22]", "value": 1.53, "unit": "points"}, {"measurement": "CDR-SB Score Change over Standard of Care (Δ improvement vs control)", "setting": "[2]; [5]", "value": 0.2, "unit": "points"}, {"measurement": "CDR-SB Score Change over Standard of Care (Δ improvement vs control)", "setting": "[2]; [6]", "value": 0.3, "unit": "points"}, {"measurement": "CDR-SB Score Change over Standard of Care (Δ improvement vs control)", "setting": "[2]; [7]", "value": 0.3, "unit": "points"}, {"measurement": "CDR-SB Score Change over Standard of Care (Δ improvement vs control)", "setting": "[2]; [8]", "value": 0.1, "unit": "points"}, {"measurement": "CDR-SB Score Change over Standard of Care (Δ improvement vs control)", "setting": "[2]; [9]", "value": "−0.1", "unit": "points"}, {"measurement": "CDR-SB Score Change over Standard of Care (Δ improvement vs control)", "setting": "[2]; [10]", "value": 0, "unit": "points"}, {"measurement": "CDR-SB Score Change over Standard of Care (Δ improvement vs control)", "setting": "[2]; [11]", "value": 0.5, "unit": "points"}, {"measurement": "CDR-SB Score Change over Standard of Care (Δ improvement vs control)", "setting": "[2]; [12]", "value": 0.5, "unit": "points"}, {"measurement": "CDR-SB Score Change over Standard of Care (Δ improvement vs control)", "setting": "[2]; [13]", "value": 0.6, "unit": "points"}, {"measurement": "CDR-SB Score Change over Standard of Care (Δ improvement vs control)", "setting": "[2]; [14]", "value": 0.4, "unit": "points"}, {"measurement": "CDR-SB Score Change over Standard of Care (Δ improvement vs control)", "setting": "[2]; [15]", "value": 0.3, "unit": "points"}, {"measurement": "CDR-SB Score Change over Standard of Care (Δ improvement vs control)", "setting": "[2]; [16]", "value": 0.50, "unit": "points"}, {"measurement": "CDR-SB Score Change over Standard of Care (Δ improvement vs control)", "setting": "[2]; [17]", "value": 1.00, "unit": "points"}, {"measurement": "CDR-SB Score Change over Standard of Care (Δ improvement vs control)", "setting": "[2]; [18]", "value": 1.00, "unit": "points"}, {"measurement": "CDR-SB Score Change over Standard of Care (Δ improvement vs control)", "setting": "[2]; [19]", "value": 1.00, "unit": "points"}, {"measurement": "CDR-SB Score Change over Standard of Care (Δ improvement vs control)", "setting": "[2]; [20]", "value": 1.00, "unit": "points"}, {"measurement": "CDR-SB Score Change over Standard of Care (Δ improvement vs control)", "setting": "[2]; [21]", "value": 1.1, "unit": "points"}, {"measurement": "CDR-SB Score Change over Standard of Care (Δ improvement vs control)", "setting": "[2]; [22]", "value": 1.5, "unit": "points"}, {"measurement": "Improvement compared with patients with lower MMSE at baseline", "setting": "[3]; Mild AD (baseline MMSE ≥20) or More Mild AD (baseline MMSE ≥22)", "value": "higher improvement"}, {"measurement": "Efficacy and cognitive benefit by baseline MMSE", "setting": "[3]; baseline MMSE ≥22 (More Mild), 78 weeks", "value": "highest efficacy and a sustained cognitive benefit"}, {"measurement": "Most common adverse event", "setting": "[4]", "value": "nausea"}, {"measurement": "Safety profile", "setting": "[4]", "value": "favorable safety profile"}]}
